From patent US11389415B2, “Methods of regulating cannabinoid receptor activity-related disorders and diseases” (The United States of America as represented by the …, priority 2012, dated 2022)
“Also recorded” adds a separate entry of the source. Read-outs that look alike come from different tables or passages of the source.

Assays:
[1] = test system: HepG2 cells; test: [3H]-Thymidine incorporation assay in HepG2 cells; format: cell-based, human
Protocol: (§1) Maintenance and Treatment of Cell Lines. Human HepG2 hepatocarcinoma cells and human U87MG glioma cells (ATCC, Manassas, Va.) were maintained in EMEM medium supplemented with 1% L-glutamine, 1% sodium pyruvate, 1% penicillin/streptomycin, and 10% FBS (Hyclone, Logan, Utah). The human 1321N1 astrocytoma cells (European Collection of Cell Cultures, Sigma-Aldrich) were cultured in Dulbecco's modified Eagle's medium supplemented with 10% FBS and penicillin/streptomycin. All cell lines were cultured at 37° C. in 5% CO2, and the medium was replaced every 2-3 days.
(§2) Cells were seeded in 12-well plates at approximately 50,000 cells/well and incubated at 37° C. After 24 hours, the wells were rinsed with PBS and replaced with serum-free medium containing the appropriate concentration of the test compounds. After another 24-hour incubation at 37° C., 1 μCi of [^3H]-thymidine was added to each well and incubated at 37° C. for 16 hours. [^3H]-Thymidine incorporation into DNA was monitored after the cells were washed twice with PBS and then lysed in 600 μL of 0.1N NaOH for 30 minutes with shaking. The lysate was then mixed with 3 mL of liquid scintillation cocktail (Beckman Coulter, Inc., Brea, Calif.), and radioactivity was measured by liquid scintillation counting using Beckman Coulter LS6000IC Scintillation Counter. Data are shown as CPM incorporated compared to the control cells.

[2] = test system: 1321N1 cells; test: Mitogenesis / [3H]-thymidine incorporation in 1321N1 cells; format: cell-based, human; details: compound alone
Protocol: as §1
as §2, with “[^3H]-Thymidine Incorporation Assay. Cells” for “Cells”

[3] = test system: U87MG cells; test: [3H]-Thymidine incorporation in U87MG cells; format: cell-based, human; details: compound alone
Protocol: as §1, §2

[4] = test system: HepG2 cells; test: cAMP accumulation in HepG2 cells; format: cell-based, human; details: β-agonists at 10 μM
Protocol: cAMP Accumulation. HepG2 cells were seeded in 96-well plates and grown to confluency. […] The levels of cAMP accumulated in cells were determined and normalized to the amount of protein per well.

[5] = test system: Akt and ERK1/2; test: phosphorylation of Akt and ERK1/2 in HepG2 cells (Western blot); format: cell-based, human; details: 1 μM, 5, 10 and 30 minutes
Protocol: Western Blotting. Cells were lysed with RIPA buffer containing EGTA and EDTA (Boston BioProducts, Ashland, Mass.). The lysis buffer was mixed with a protease inhibitor cocktail (Sigma-Aldrich). Protein concentrations were measured using the bicinchoninic acid reagent (Thermo-Pierce Biotechnology, Inc., Rockford, Ill.). […] Western blots were performed according to standard methods. The visualization of immunoreactive bands was performed using the ECL Plus Western Blotting Detection System (GE Healthcare, NJ) and their quantification was done by volume densitometry using Image J software and normalization to β-actin. […] The antibodies were used at a dilution recommended by the manufacturer.

[6] = test system: HepG2 cells; test: Cell cycle analysis by flow cytometry in HepG2 cells; format: cell-based, human; details: HepG2, 1 μM, up to 24 hours
Protocol: Cell Cycle Analysis. Cell cycle distributions were performed by flow cytometry on propidium iodide-stained nuclei prepared by the NIM technique. DNA histograms of at least 10,000 cells acquired on a Becton-Dickinson FACScanto II (BD Biosciences, San Jose, Calif.) were deconvoluted using the Multicycle program (Phoenix Flow Systems) for estimates of the percentage of cells in the G0/1, S, and G2+M phases of the cell cycle. Debris and doublets were removed from the analysis by software algorithms.

[7] = test system: HepG2 cells; test: Apoptosis assay (annexin V/PI flow cytometry) in HepG2 cells; format: cell-based, human; details: HepG2, 1 μM, 24 hours
Protocol: Apoptosis Assay. The degree of apoptosis induced by drug treatment was assayed by flow cytometry using the Alexa Fluor® 488 annexin V/Dead Cell Apoptosis Kit (Invitrogen) following the standard manufacturer's protocol. […] Cells were subsequently harvested after a 24-hour incubation, washed in cold PBS, and resuspended in 100 μL of 1× annexin-binding buffer to maintain a density˜1×10^6 cells/mL, after which 5 μL Alexa Fluor® 488 annexin V and 1 μL 100 μg/mL propidium iodide were added to the cell suspensions. Cells were then incubated at room temperature for 15 minutes and 400 μL 1× annexin-binding buffer was added followed by gentle mixing. Stained cells were analyzed on a BDFACSCanto II flow cytometer.

[8] = test system: U87; test: tumor cell growth, U87; details: Table 6
[9] = test system: MCF7; test: tumor cell growth, MCF7; details: Table 6
[10] = test system: A549; test: tumor cell growth, A549; details: read-out: IC50 (uM), A549 (NSCLC); Table 6
[11] = test system: U251; test: tumor cell growth, U251; details: Table 6
[12] = test system: A172; test: tumor cell growth, A172; details: Table 6
[13] = test system: U118; test: tumor cell growth, U118; details: read-out: IC50 (uM), U118 (CNS); Table 6
[14] = test system: CAPAN; test: tumor cell growth, CAPAN; details: Table 6
[15] = test system: HEPG2; test: tumor cell growth, HEPG2; details: Table 6
[16] = test system: GL261; test: tumor cell growth, GL261; details: Table 6
[17] = test system: LN-18; test: tumor cell growth, LN-18; details: Table 6
[18] = test system: PANC-1; test: tumor cell growth, PANC-1; details: Table 6
[19] = test system: Du-145; test: tumor cell growth, Du-145; details: read-out: IC50 (uM), Du-145 (Prostate C); Table 6
[20] = test system: MDAMB231; test: tumor cell growth, MDAMB231; details: Table 6
[21] = test system: PC3; test: tumor cell growth (CTG), PC3
[22] = test system: HT29; test: tumor cell growth (CTG), HT29
[23] = test system: HT29; test: Thymidine (Thy) 96 well, HT29; details: read-out: IC50 (uM), HT29 (Colon Cancer)
[24] = test system: HEP3B; test: tumor cell growth (CTG), HEP3B
[25] = test system: HCT116; test: tumor cell growth (CTG), HCT116
[26] = test system: HCT116; test: Thymidine (Thy) 96 well, HCT116; details: read-out: IC50 (uM), HCT116 (Colon Cancer)
[27] = test system: NCIH460; test: Thymidine (Thy) 96 well, NCIH460; details: read-out: IC50 (uM), NCIH460 (NSCLC)
[28] = test system: H460; test: tumor cell growth (CTG), H460 / NCIH460
[29] = test system: LN-229; test: tumor cell growth (CTG), LN-229 / LN229
[30] = test system: PC3; test: [3H]-Thymidine incorporation in 96-well plates (Thy), PC3; details: read-out: IC50 (uM), PC3 (Prostrate Cancer)
[31] = test system: HEP3B; test: [3H]-Thymidine incorporation in 96-well plates (Thy), HEP3B; details: read-out: IC50 (uM), HEP3B (Liver Cancer)
[32] = test system: LN229; test: [3H]-Thymidine incorporation in 96-well plates (Thy), LN229; details: read-out: IC50 (uM), LN229 (CNS Cancer)

For `C[C@H](Cc1ccc(O)cc1)NC[C@H](O)c1cc(O)cc(O)c1` [(R,R′)-Fen, (R,R′)-Fenoterol], the “% Change in HepG2 cells ([3H]-thymidine incorporation)” value ([1]; 1 μM, 24 h) was 51.3%, the EC50 ([1]; Homo sapiens, HepG2, read-out: IC50/EC50 (μM): EC50 (ED50) for increase in [3H]-thymidine incorporation) was 1.17 ± 0.37 µM and the “effect on proliferation / [3H]-thymidine incorporation” value [2] was “reduced proliferation in 1321N1 cells”. For the same molecule, the “effect on cellular proliferation” value [3] was “had no effect”, the “cAMP production” value [4] was “Neither (R)-isoproterenol nor (R,R′)-Fen, at 10 μM, elicited an increase in cAMP production” and the “Akt and ERK activation” value [5] was “induced a time-dependent increase in Akt and ERK activation”. The “cell cycle / sub-G1 events” value [6] was “no significant alterations of the cell cycle; also recorded: No significant increase in sub-G1 events” and the “apoptosis compared to control” value [7] was “markedly reduced apoptosis”.
For `COc1ccc(C[C@@H](C)NC[C@H](O)c2cc(O)cc(O)c2)cc1` [RR-MF, (R,R′)-4-methoxyfenoterol], the “IC50 (uM), U87 (CNS)” value [8] was “N.E”, the “IC50 (uM), MCF7 (Breast C)” value [9] was “N.E” and the IC50 [10] was over 50 µM. For the same molecule, the “IC50 (uM), U251 (CNS)” value [11] was “N.E”, the “IC50 (uM), A172 (CNS)” value [12] was “N.E.?” and the IC50 [13] was over 50 µM. The “IC50 (uM), CAPAN (Pancreatic C)” value [14] was “N.E”, the “IC50 (uM), HEPG2 (Liver C)” value [15] was “N.E” and the “IC50 (uM), GL261 (CNS)” value [16] was “N.E.?”. For the same molecule, the “IC50 (uM), LN-18 (CNS)” value [17] was “N.E.?”, the “IC50 (uM), PANC-1 (Pancreatic C)” value [18] was “N.E” and the IC50 [19] was over 50 µM. For the same molecule, the “IC50 (uM), MDAMB231 (Breast C)” value [20] was “N.E”, the IC50 ([21]; read-out: IC50 (uM), PC3 (Prostate C), Table 6) was over 50 µM and the IC50 ([21]; read-out: IC50 (uM), PC3 (Prostrate Cancer), 96 well CTG 1 day treatment) was over 50 µM. The IC50 ([21]; read-out: IC50 (uM), PC3 (Prostrate Cancer), 96 well CTG 2 days treatment) was over 50 µM, the IC50 ([21]; read-out: IC50 (uM), PC3 (Prostrate Cancer), 384well CTG 3 days treatment −1) was over 50 µM and the IC50 ([22]; read-out: IC50 (uM), HT29 (Colon C), Table 6) was over 50 µM. For the same molecule, the IC50 ([22]; read-out: IC50 (uM), HT29 (Colon Cancer), 96 well CTG 1 day treatment) was over 50 µM, the IC50 ([22]; read-out: IC50 (uM), HT29 (Colon Cancer), 96 well CTG 2 days treatment) was over 50 µM and the IC50 ([22]; read-out: IC50 (uM), HT29 (Colon Cancer), 384well CTG 3 days treatment −1) was over 50 µM. For the same molecule, the IC50 ([23]; 96 well Thy 2 days treatment) was over 50 µM, the IC50 ([23]; 96 well Tye 1 day treatment) was over 50 µM and the IC50 ([24]; read-out: IC50 (uM), HEP3B (Liver C), Table 6) was over 50 µM. The IC50 ([24]; read-out: IC50 (uM), HEP3B (Liver Cancer), 96 well CTG 1 day treatment) was over 50 µM, the IC50 ([24]; read-out: IC50 (uM), HEP3B (Liver Cancer), 96 well CTG 2 days treatment) was over 50 µM and the IC50 ([24]; read-out: IC50 (uM), HEP3B (Liver Cancer), 384well CTG 3 days treatment −1) was over 50 µM. For the same molecule, the IC50 ([24]; read-out: IC50 (uM), HEP3B (Liver Cancer), 384well CTG 3 days treatment −2) was over 50 µM, the IC50 ([25]; read-out: IC50 (uM), HCT116 (Colon C), Table 6) was over 50 µM and the IC50 ([25]; read-out: IC50 (uM), HCT116 (Colon Cancer), 96 well CTG 1 day treatment) was over 50 µM. It also gave an IC50 ([25]; read-out: IC50 (uM), HCT116 (Colon Cancer), 96 well CTG 2 days treatment) of over 50 µM, an IC50 ([25]; read-out: IC50 (uM), HCT116 (Colon Cancer), 384well CTG 3 days treatment −1) of over 50 µM and an IC50 ([25]; read-out: IC50 (uM), HCT116 (Colon Cancer), 384well CTG 3 days treatment −2) of over 50 µM. For the same molecule, the IC50 ([26]; 96 well Thy 2 days treatment) was over 50 µM, the IC50 ([26]; 96 well Tye 1 day treatment) was over 50 µM and the IC50 ([27]; 96 well Thy 2 days treatment) was over 50 µM. For the same molecule, the IC50 ([27]; 96 well Tye 1 day treatment) was over 50 µM, the IC50 ([28]; read-out: IC50 (uM), H460 (NSCLC), Table 6) was over 50 µM and the IC50 ([28]; read-out: IC50 (uM), NCIH460 (NSCLC), 96 well CTG 1 day treatment) was over 50 µM. For the same molecule, the IC50 ([28]; read-out: IC50 (uM), NCIH460 (NSCLC), 96 well CTG 2 days treatment) was over 50 µM, the IC50 ([28]; read-out: IC50 (uM), NCIH460 (NSCLC), 384well CTG 3 days treatment −1) was over 50 µM and the IC50 ([28]; read-out: IC50 (uM), NCIH460 (NSCLC), 384well CTG 3 days treatment −2) was over 50 µM. It also gave an IC50 ([29]; read-out: IC50 (uM), LN229 (CNS Cancer), 96 well CTG 1 day treatment) of over 50 µM, an IC50 ([29]; read-out: IC50 (uM), LN229 (CNS Cancer), 96 well CTG 2 days treatment) of over 50 µM and an IC50 ([29]; read-out: IC50 (uM), LN229 (CNS Cancer), 384well CTG 3 days treatment −1) of over 50 µM. It also gave an IC50 ([29]; read-out: IC50 (uM), LN-229 (CNS), Table 6) of over 50 µM, an IC50 ([30]; 96 well Thy 2 days treatment) of over 50 µM and an IC50 ([30]; 96 well Tye 1 day treatment) of over 50 µM. The IC50 ([31]; 96 well Thy 2 days treatment) was 2.35 µM, the IC50 ([31]; 96 well Tye 1 day treatment) was 2.4 µM and the IC50 ([32]; 96 well Thy 2 days treatment) was over 50 µM. The IC50 ([32]; 96 well Tye 1 day treatment) was over 50 µM.
